Assay results: patent publication US11667630B2, “Nitrogen-containing 6-membered cyclic compound” (Asahi Kasei Pharma Corporation, priority 2017, dated 2023)

Columns and labels:
human EP2 receptor = target: T1, human EP2 receptor (Homo sapiens, UniProt P43116); experiment: Receptor binding test, [3H]PGE2 binding inhibition, EP2; conditions: [3H]PGE2 2.56 nmol/L, membrane fraction HTS185M, 25°C 60 minutes
T1 construct: purchased Merck Millipore HTS185M
Procedure: (§1) In order to evaluate selectivity to each EP receptor subtype, [^3H]PGE2 binding-inhibition activities of test compounds for cell membranes on which human EP2, human EP3, and human EP4 receptors were stably expressed were measured.
(§2) As the membrane fractions of the prostaglandin E receptors EP2, EP3, and EP4, 10.0 μg protein/tube each of HTS185M, HTS092M, and HTS142M of Merck Millipore were used, respectively. Each membrane fraction was incubated with a reaction mixture (250 μL/tube) containing a test compound and [3H]PGE2 at 25° C. for 60 minutes. […] After the reaction, the membrane fraction was collected on filter paper by using a cell harvester, the filter paper was transferred to a measurement vial, and the measurement was performed on a liquid scintillation counter.
(§3) The nonspecific binding was determined as binding observed in the presence of excess amount (10 μM) of unlabeled PGE2. The measurement of the [3H]PGE2 binding-inhibiting activity of a test compound was performed by adding the test compound at various concentrations. The following buffers were used for the reaction.
Buffer for EP2: 50 mmol/L HEPES-NaOH (pH 7.4) containing 5 mmol/L MgCl2, 1 mmol/L CaCl2), and 0.2% BSA

human EP3 receptor = target: T2, human EP3 receptor (Homo sapiens, UniProt P43115); experiment: Receptor binding test, [3H]PGE2 binding inhibition, EP3; conditions: [3H]PGE2 1.54 nmol/L, membrane fraction HTS092M, 25°C 60 minutes
T2 construct: purchased Merck Millipore HTS092M
T2 sequence (P43115 1-390): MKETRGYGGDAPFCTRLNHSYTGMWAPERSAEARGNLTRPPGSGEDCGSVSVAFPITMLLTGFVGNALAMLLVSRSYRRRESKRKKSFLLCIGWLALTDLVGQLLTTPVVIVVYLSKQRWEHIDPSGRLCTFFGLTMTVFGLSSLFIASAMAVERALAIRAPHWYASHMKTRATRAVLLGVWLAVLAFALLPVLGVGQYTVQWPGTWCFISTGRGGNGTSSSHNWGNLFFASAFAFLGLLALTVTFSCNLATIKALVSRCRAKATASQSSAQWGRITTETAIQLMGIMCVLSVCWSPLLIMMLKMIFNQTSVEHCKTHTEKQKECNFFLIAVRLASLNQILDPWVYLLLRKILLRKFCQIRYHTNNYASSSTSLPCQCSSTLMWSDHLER
Procedure: as §1, §2, §3
Buffer for EP3: 50 mmol/L Tris-HCl buffer containing 10 mmol/L MgCl2, and 1 mmol/L EDTA

rat femur = experiment: Neo-osteogenesis action in rat femur; format: in vivo; conditions: female SD rats, one week after administration; for Bone mineral content of femur 1/3 center region (mg) Left femur (administered with compound): 100 μg test compound in in situ-solidified gel solution injected between quadriceps and periosteum; for Bone mineral content of femur 1/3 center region (mg) Right femur (no administration of compound): contralateral femur, 100 μg test compound given at left femur
Procedure: Eight weeks old female SD rats (Charles River Japan) were fixed in the side lying position under triple anesthesia (medetomidine hydrochloride, midazolam, and butorphanol tartrate). After hair of the left femoral region was shaved with a hair clipper, and disinfection treatment was performed with 70% ethanol, an in situ-solidified gel solution of a test compound, specifically, a test compound dissolved in poly(lactic-co-glycolic acid) (RESOMER RG502H, produced by Evonik Industries)/poly(lactic-co-glycolic acid)-polyethylene glycol block copolymer (5050 DLG mPEG 5000, produced by Lakeshore Biomaterials)/N-methyl-2-pyrroridone (produced by Wako) (weight ratio 47%/3%/50%), was filled in a 1-mL syringe, a 21G injection needle was attached to the syringe, and the needle was transdermally stabbed from the quadriceps to the periosteum near the center of the femoral diaphyseal. Then, 100 μg as the amount of the test compound, or 50 μL as the administration volume of the solution was injected between the quadriceps and the periosteum, and the injection needle was drawn out. To the rats of the control group, the aforementioned in situ-solidified gel solution alone was administered. One week after the administration of the drug solution, the triple anesthesia was given to the animals, and they were fixed in the supine position, and euthanized by bleeding. […], circumferential tissues such as muscles were removed, the bone mineral content of the whole femur was measured by using a bone mineral analyzer DCS-600EX (produced by ALOKA), then it was divided into three portions along the long axis, and the bone mineral content of the center part (diaphysis) was evaluated. The test was performed with the groups each consisting of 6 animals.

human EP4 receptor [1] = target: T3, human EP4 receptor (Homo sapiens, UniProt P35408); experiment: Receptor binding test, [3H]PGE2 binding inhibition, EP4; set-up: purchased Merck Millipore HTS142M; conditions: [3H]PGE2 1.24 nmol/L, membrane fraction HTS142M, 25°C 60 minutes
T3 sequence (P35408 whole entry): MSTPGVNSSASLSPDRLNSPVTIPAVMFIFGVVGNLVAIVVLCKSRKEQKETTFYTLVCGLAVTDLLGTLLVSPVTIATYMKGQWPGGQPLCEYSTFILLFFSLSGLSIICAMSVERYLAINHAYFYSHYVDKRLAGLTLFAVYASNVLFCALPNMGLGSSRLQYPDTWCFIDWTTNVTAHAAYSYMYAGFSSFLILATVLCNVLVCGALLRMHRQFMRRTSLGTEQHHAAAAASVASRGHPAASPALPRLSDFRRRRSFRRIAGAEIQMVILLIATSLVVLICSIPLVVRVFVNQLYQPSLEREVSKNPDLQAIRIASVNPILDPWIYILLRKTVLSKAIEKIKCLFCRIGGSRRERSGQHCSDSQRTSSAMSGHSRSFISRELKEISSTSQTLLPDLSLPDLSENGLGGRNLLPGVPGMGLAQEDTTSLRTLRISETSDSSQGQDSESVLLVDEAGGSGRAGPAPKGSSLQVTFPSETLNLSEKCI
Procedure: as §1, §2, §3
Buffer for EP4: 50 mmol/L HEPES-NaOH (pH7.4) containing 5 mmol/L MgCl2, 1 mmol/L CaCl2), and 0.2% BSA

human EP4 receptor [2] = target: T3, human EP4 receptor; experiment: Measurement of EP4 agonist activity (cAMP production); format: cell-based; set-up: expressed in transfected cells; host or cells: HEK293; conditions: cAMP production in HEK293 cells stably expressing human EP4 receptor; average values where measured two or more times
Procedure: In order to investigate EP4 receptor agonist activity of the compounds of the present invention, production of cAMP was measured in HEK293 cells that were made to stably express the human EP4 receptor.
By using Refseq Database, prostaglandin E receptor was searched for. As a result, gene information of human EP4 (NM_000958) receptor was obtained. On the basis of this sequence information, the human EP4 receptor gene was cloned by PCR in a conventional manner using human cDNA as the template, and HEK293 cells that were made to stably express the human EP4 receptor were established. When cryopreserved cells of this strain were thawed and used, cells subcultured three times or more within a certain period of time (about 1 to 2 weeks) by using Dulbecco's Modified Eagle's Medium (Dulbecco's Modified Eagle's Medium may be henceforth abbreviated as DMEM) containing 10% FBS, 50 units each of penicillin and streptomycin were used. The subcultured cells were inoculated in wells of a poly-D-lysine-coated 96-well plate at a density of 2×10^4 to 2.5×10^4 cells/well, and cultured for one day. The medium in the wells was removed by suction, then DMEM (80 μL) was added to each well, and incubation was performed at 37° C. for 15 minutes. […] The reaction was allowed at 37° C. for 30 minutes, then the medium was removed by suction, Assay/Lysis Buffer (100 μL) contained in cAMP Screen Kit (produced by Applied Biosystems) was added to terminate the reaction. Then, the reaction mixture was incubated at 37° C. for 30 minutes to prepare a sample for quantification of cAMP, and the amount of cAMP in the sample was quantified according to the method indicated in cAMP Screen Kit. By non-linear regression of the compound concentration and the amount of cAMP, the concentration of the compound required for increasing cAMP to 50% of the maximum increase (EC50 value) was calculated by using the Kaleida Graph.

T1 sequence (P43116 whole entry): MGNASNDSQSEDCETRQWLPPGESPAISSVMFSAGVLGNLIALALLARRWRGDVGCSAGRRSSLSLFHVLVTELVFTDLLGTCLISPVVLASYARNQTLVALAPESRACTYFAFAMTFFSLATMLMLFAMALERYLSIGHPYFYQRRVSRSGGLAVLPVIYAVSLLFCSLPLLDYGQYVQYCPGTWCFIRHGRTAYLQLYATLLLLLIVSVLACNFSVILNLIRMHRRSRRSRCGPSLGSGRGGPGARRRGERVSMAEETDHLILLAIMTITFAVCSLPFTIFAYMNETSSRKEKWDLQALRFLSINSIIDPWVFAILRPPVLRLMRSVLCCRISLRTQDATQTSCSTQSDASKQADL

SMILES | IC50 (human EP2 receptor) [nM] | IC50 (human EP3 receptor) [nM] | Bone mineral content of femur 1/3 center region (mg) Left femur (administered with compound) (rat femur) [mg] | Bone mineral content of femur 1/3 center region (mg) Right femur (no administration of compound) (rat femur) [mg] | IC50 (human EP4 receptor [1]) [nM] | EC50 (human EP4 receptor [2]) [nM]
O=C(O)c1ccc(CCN2C(=O)SCCN2CC[C@@H](O)Cc2cccc(C#Cc3ccoc3)c2)s1 [Example 26, (S)-5-(2-(4-(4-(3-(Furan-3-ylethynyl)phenyl)-3-hydroxybutyl)-2-oxo-1,3,4-thiadiazinan-3-yl)ethyl)thiophene-2-carboxylic acid] | > 1000 | > 1000 | 87.0 ± 1.6 | 65.9 ± 1.2 | 16.2 | 0.17
O=C(O)c1ccc(CCN2C(=O)SCCN2CC[C@@H](O)Cc2cccc(C#Cc3cscn3)c2)s1 [Example 25, (S)-5-(2-(4-(3-Hydroxy-4-(3-(thiazol-4-ylethynyl)phenyl)butyl)-2-oxo-1,3,4-thiadiazinan-3-yl)ethyl)thiophene-2-carboxylic acid] | > 1000 | > 1000 | 79.1 ± 4.0 | 61.0 ± 2.1 | 10.9 | 0.095
